The values that follow come from patent US7442692B2, “Indanyl-piperazine compounds” (Les Laboratoires Servier, priority 2005, dated 2008).

Structures are written as SMILES. Counter-ions that a name gives are not always drawn.

Experiment [1] addresses T1, serotonin (5-HTT) reuptake site (Rattus norvegicus, UniProt P31652).
T1 construct: from tissue; host or cells: rat frontal cortex membranes
Nature of the experiment: Affinity for serotonin reuptake sites in the rat ([3H]-citalopram competition). It counts as binding. Particulars: rat frontal cortex membranes, read-out: pKi r5-HTT (converted). The protocol: The cortices are homogenised using a Polytron in 40 volumes (weight/volume) of cold Tris-HCl (50 mM, pH 7.4) incubation buffer containing 120 mM NaCl and 5 mM KCl and are then centrifuged for a first time. The sediment is resuspended in the same buffer, incubated for 10 minutes at 37° C. and then re-centrifuged. The membranes are washed a further two times and the sediment is then resuspended in an appropriate volume of incubation buffer. […] Non-specific binding is determined with 10 μM fluoxetine. At the end of the incubation period, the samples are filtered through Unifilter GF/B type filters pretreated with PEI (0.5%) and washed several times with the incubation buffer. The radioactivity retained on the filters is counted after addition of scintillation liquid, with the aid of a scintillation counter. […] The results are expressed as pKi=−log Ki.

In another experiment the target is T2, human NK1 receptors (Homo sapiens, UniProt P25103).
T2 construct: IM9 human lymphoblast cells endogenously expressing NK1 receptors; endogenous in cells; host or cells: IM9 human lymphoblast cells
Nature of the experiment: hNK1 binding ([3H]-Substance P competition on IM9 human lymphoblast cells). Particulars: read-out: pKi NK1 (converted). The protocol:
IM9 human lymphoblast cells endogenously expressing NK1 receptors are centrifuged and taken up in the incubation buffer containing 50 mM TRIS, 150 mM NaCl, 4 mM CaCl2, protease inhibitors at 1/100^e (Cocktail SIGMA P8340) and 0.2% BSA. The volume of incubation buffer is determined so as to obtain a concentration of 5×10^6 cells/ml. […] Non-specific binding is determined in the presence of 1 μM GR 205171.
At the end of the incubation period, the samples ate filtered through Unifilter GF/B type filters pretreated with PEI (0.1%) and washed several times with the filtration buffer ([…], 150 mM NaCl, 4 mM CaCl2). The radioactivity retained on the filters is measured by counting after addition of scintillation liquid to the filters. The counts are […] analysed by non-linear regression, allowing the isotherms to be plotted and the IC50 values to be determined. […] The results are expressed as pKi (−log Ki).

T1 sequence (P31652 whole entry): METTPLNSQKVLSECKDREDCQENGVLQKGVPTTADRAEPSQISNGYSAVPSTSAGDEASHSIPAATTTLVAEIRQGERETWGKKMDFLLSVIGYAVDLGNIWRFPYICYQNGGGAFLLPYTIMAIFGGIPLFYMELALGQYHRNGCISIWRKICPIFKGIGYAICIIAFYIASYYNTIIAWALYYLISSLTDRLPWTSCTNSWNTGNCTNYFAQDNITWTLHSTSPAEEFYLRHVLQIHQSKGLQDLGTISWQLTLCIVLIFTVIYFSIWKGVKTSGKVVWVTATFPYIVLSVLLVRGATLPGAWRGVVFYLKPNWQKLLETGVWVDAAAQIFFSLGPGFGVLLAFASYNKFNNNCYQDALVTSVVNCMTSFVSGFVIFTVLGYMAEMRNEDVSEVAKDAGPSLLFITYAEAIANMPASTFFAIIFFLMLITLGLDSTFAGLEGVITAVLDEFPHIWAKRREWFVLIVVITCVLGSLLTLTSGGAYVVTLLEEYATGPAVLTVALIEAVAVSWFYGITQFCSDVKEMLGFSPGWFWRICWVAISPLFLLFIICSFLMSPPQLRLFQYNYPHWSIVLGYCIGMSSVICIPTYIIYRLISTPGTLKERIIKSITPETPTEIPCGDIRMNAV
T2 sequence (P25103 whole entry): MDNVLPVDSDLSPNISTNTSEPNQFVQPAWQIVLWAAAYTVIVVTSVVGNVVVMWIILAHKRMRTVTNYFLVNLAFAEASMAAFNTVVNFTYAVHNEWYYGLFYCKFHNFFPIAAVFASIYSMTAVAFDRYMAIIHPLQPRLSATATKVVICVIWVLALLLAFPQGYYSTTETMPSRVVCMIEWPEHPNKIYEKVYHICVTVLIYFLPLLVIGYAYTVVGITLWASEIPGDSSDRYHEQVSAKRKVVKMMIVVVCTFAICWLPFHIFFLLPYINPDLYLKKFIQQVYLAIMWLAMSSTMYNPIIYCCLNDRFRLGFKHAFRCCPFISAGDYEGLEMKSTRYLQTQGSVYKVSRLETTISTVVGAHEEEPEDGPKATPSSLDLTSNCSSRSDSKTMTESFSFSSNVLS

For `Brc1cc(Br)cc(COCC2(N3CCNCC3)CCc3ccccc32)c1` (racemic) [Example 1, 1-[(1RS)-1-(3,5Dibromobenzyloxymethyl)indan-1-yl]piperazine dihydrochloride], the Ki in experiment [1] was 245 nM; at human NK1 receptors, 3.39 nM.

Regarding `CN(Cc1ccccc1)C(=O)C1(N2CCNCC2)CCc2ccccc21` (racemic) [Example 11, (1RS)-N-Benzyl-N-methyl-1-(1-piperazinyl)-1-indancarboxamide dihydrochloride], the Ki at human NK1 receptors is 490 nM.

On to `CN(Cc1cc(F)cc(F)c1)C(=O)C1(N2CCNCC2)CCc2ccccc21` (racemic) [Example 68, (1RS)-N-(3,5Difluorobenzyl)-N-methyl-1-(1-piperazinyl)-1-indan-carboxamide dihydrochloride], for which the Ki in experiment [1] was 33.9 nM.

For `Cc1cc(C)cc(COCC2(N3CCNCC3)CCc3ccccc32)c1` (racemic) [Example 2, 1-[(1RS)-1-(3,5-Dimethylbenzyloxymethyl)indan-1-yl]piperazine dihydrochloride], the Ki is 53.7 nM in experiment [1] and 18.2 nM on human NK1 receptors.

As to `CN(Cc1cc(F)cc(Cl)c1)C(=O)C1(N2CCNCC2)Cc2ccccc2C1` [Example 135, N-(3-Chloro-5-fluorobenzyl)-N-methyl-2-(1-piperazinyl)-2-indan-carboxamide dihydrochloride], in experiment [1], the Ki was 43.7 nM.

As for `Cc1cc(C)cc(COCC2(N3CCNCC3)Cc3ccccc3C2)c1` [Example 3, 1-[2-(3,5-Dimethylbenzyloxymethyl)indan-2-yl]piperazine dihydrochloride], the Ki in experiment [1] was 63.1 nM; on human NK1 receptors it was 162 nM.

Take `CN(Cc1cc(Cl)cc(Cl)c1)C(=O)C1(N2CCNCC2)CCc2ccccc21` (racemic) [Example 85, (1RS)-N-(3,5-Dichlorobenzyl)-N-methyl-1-(1-piperazinyl)-1-indan-carboxamide dihydrochloride]: the Ki in experiment [1] was 93.3 nM.

Take `O=C(NCc1cc(C(F)(F)F)cc(C(F)(F)F)c1)C1(N2CCNCC2)Cc2ccccc2C1` [Example 5, N-[3,5-Bis(trifluoromethyl)benzyl]-2-(1-piperazinyl)-2-indan-carboxamide dihydrochloride]: the Ki at human NK1 receptors was 398 nM.

As to `CN(Cc1cc(Cl)cc(Cl)c1)CC1(N2CCNCC2)Cc2ccccc2C1` [Example 79, N-(3,5-Dichlorobenzyl)N-methyl-[2-(1-piperazinyl)indan-2-yl]-methanamine trihydrochloride], at human NK1 receptors, the Ki was 513 nM.

Regarding `CN(Cc1cc(F)cc(C(F)(F)F)c1)C(=O)C1(N2CCNCC2)CCc2ccccc21` (racemic) [Example 69, (1RS)-N-[3-Fluoro-5(trifluoromethyl)benzyl]-N-methyl-1-(1-piperazinyl)-1-indancarboxamide dihydrochloride], in experiment [1], the Ki is 151 nM.

As for `Fc1cc(F)cc(COCC2(N3CCNCC3)CCc3ccccc32)c1` (racemic) [Example 70, (1RS)-1-[1-(3,5Difluorobenzyloxymethyl)indan-1-yl]piperazine dihydrochloride], the Ki in experiment [1] is 3.24 nM.
